In ChEMBL document CHEMBL1201862, “PubChem BioAssay data set” (2004):
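Five concentrations, 48 hours, 96-well plates. Here, GI50 denotes the concentration required for 50% inhibition of growth.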 Activity calls are given as the source filed them. No stated cut-off is given here; in the data, active = GI50 up to about 1.1 µM and inactive = higher.

Experiments:
Assay in all cases: inhibition of tumour cell growth, NCI panel, 48 h
[1] = system: DU-145
[2] = system: EKVX
[3] = system: HCC 2998
[4] = system: HCT-15
[5] = system: HL-60
[6] = system: HOP-62
[7] = system: LOX IMVI
[8] = system: MOLT-4
[9] = system: Malme-3M
[10] = system: NCI-H23
[11] = system: NCI-H460
[12] = system: NCI/ADR-RES
[13] = system: SF-295
[14] = system: SK-MEL-28
[15] = system: SK-MEL-5
[16] = system: SK-OV-3
[17] = system: SW-620
[18] = system: TK-10
[19] = system: UACC-257
[20] = system: UO-31

Measured: GI50

CC1C/C(=C\c2ccc(OC(=O)C(C)(C)C)cc2)C(=O)/C(=C/c2ccc(OC(=O)C(C)(C)C)cc2)C1 (configuration not stated)
inactive: [1] > 100 µM | [2] > 100 µM | [3] > 100 µM | [5] 23.5 µM | [6] 41.2 µM | [7] 35.6 µM | [8] 7.66 µM | [9] > 100 µM | [10] 24 µM | [11] > 100 µM | [12] > 100 µM | [13] 81.5 µM | [14] > 100 µM | [15] 57.3 µM | [16] > 100 µM | [17] > 100 µM | [18] > 100 µM | [19] > 100 µM
> 100 µM: [4]

COc1cc(/C=N/c2ccccn2)cc(OC)c1OC
> 82.6 µM: [4]
inactive: [1] > 100 µM | [2] > 100 µM | [3] > 100 µM | [5] 1.87 µM | [6] > 100 µM | [7] > 100 µM | [8] > 100 µM | [9] > 100 µM | [10] > 100 µM | [11] > 100 µM | [12] > 100 µM | [13] > 76.9 µM | [14] > 86.9 µM | [15] > 93.1 µM | [16] > 63.8 µM | [17] > 100 µM | [19] > 100 µM | [20] > 100 µM

CCC(=O)Nc1cccc(NC(=O)c2c(Cl)c(Cl)c(Cl)c(Cl)c2-c2nc3ccccc3[nH]2)c1
active: [13] 0.0417 µM
inactive: [1] > 100 µM | [2] 52.8 µM | [3] 49.7 µM | [5] 43 µM | [7] 77.4 µM | [8] 22.8 µM | [9] > 100 µM | [10] > 100 µM | [11] 37.8 µM | [12] > 100 µM | [14] > 100 µM | [15] > 100 µM | [17] > 100 µM | [19] 59 µM | [20] 21.7 µM
60.7 µM: [4]

CN(C)c1ccc(/C=C(\NC(=O)c2ccccc2)C(=O)NCC(=O)O)cc1
active: [5] 0.0755 µM
> 100 µM: [4]
inactive: [1] > 100 µM | [2] > 100 µM | [3] > 100 µM | [6] > 100 µM | [7] > 100 µM | [8] > 100 µM | [9] > 100 µM | [10] > 100 µM | [11] > 100 µM | [12] > 100 µM | [13] > 100 µM | [14] > 100 µM | [15] > 100 µM | [16] > 100 µM | [17] > 100 µM | [19] > 100 µM | [20] > 100 µM

C=C1C(C(O)C[C@H](C)C2O[C@@]3(CCCCO3)CCC2C)O[C@@H]2CCC3(CCC(/C=C/[C@@H](C)C4CC(C)=CC5(O4)O[C@H](C[C@](C)(O)C(=O)O)CCC5O)O3)OC2[C@@H]1O (some centres not stated)
active: [1] 0.00908 µM | [2] 0.00614 µM | [3] 0.00171 µM | [5] 0.00408 µM | [7] 0.004 µM | [8] 0.0122 µM | [9] 0.000764 µM | [10] 0.00819 µM | [11] 0.00408 µM | [12] 0.128 µM | [13] 0.00578 µM | [14] 0.00227 µM | [15] 0.00308 µM | [16] 0.00955 µM | [17] 0.0134 µM | [18] 0.0162 µM | [19] 0.00839 µM | [20] 0.0527 µM
< 0.0163 µM: [4]

O=S(=O)(c1ccccc1)C(c1ccc2ccccc2n1)S(=O)(=O)c1ccccc1
> 100 µM: [4]
inactive: [1] > 100 µM | [2] > 100 µM | [3] 48.5 µM | [5] > 100 µM | [6] 78 µM | [7] > 100 µM | [8] > 100 µM | [9] > 100 µM | [10] > 100 µM | [11] > 100 µM | [12] > 100 µM | [13] > 100 µM | [14] > 100 µM | [15] > 100 µM | [17] > 100 µM | [18] > 100 µM | [19] > 100 µM | [20] > 100 µM
